The values below come from article PMC2360547 (British Journal of Cancer, 2006).

Where “and” joins values, the source holds several entries; their conditions need not be identical. Identical values can stand only once. Like-named read-outs stand apart in the source and are kept apart here.

A word on the IC50: it is the concentration needed to halve the response being measured.

Data set [1] deals with PKC isotypes. To be noted: metabolites, compared with parent drug; no reference given; read-out: IC50 against PKC isotypes; cited from earlier work.
A short description of data set [2]: Plasma concentrations by HPLC with fluorescence detection. It is filed as in vivo, human. The following applies: for concentration at 28 day: human, plasma, oral, 75 mg tid, 12 subjects, about 1 month of 75 mg tid; for Plasma concentrations: individual subjects, sampling day 27-30, midostaurin 75 mg tid. Here is the method:
(§1) Therefore, the tumour tissue was frozen and cut into as small as possible pieces with a scalpel. The pieces were weighed, added to 1 ml of water, vortexed and thereafter treated like plasma. The assay for plasma samples was validated with acceptable calibration curves, within-study variability and total recovery. […] Due to limited availability of tumour tissue, the within-study validation for tumour assay was not performed.

A short description of data set [3]: Tumour tissue concentrations by HPLC with fluorescence detection. It is filed as in vivo, human. The following applies: for Kp at 28 day / concentration at 28 day: human, oral, 10 subjects; for Kp at 28 day: tumour tissue / plasma, 75 mg three times a day; for Kp at 28 day / Tissue/plasma ratios: tumour tissue to plasma; for concentration at 28 day / Tissue concentrations: tumour tissue, about 1 month of 75 mg tid; for concentration at 28 day: 75 mg tid; for Tissue/plasma ratios / Tissue concentrations: individual subjects. On the procedure: as §1

On the set-up of data set [4]: method as in Propper et al, 2001. To be noted: Phase I trial, oral; ref Propper et al, 2001; cited from earlier work.
The mark [5] stands for this setting: read-out: Plasma concentrations, median.
Where [6] appears, read: read-out: Tissue/plasma ratios, median.
Where [7] appears, read: read-out: Tissue concentrations, median.
The mark [8] stands for this setting: read-out: Plasma concentrations, maximum.
Setting [9] is: read-out: Plasma concentrations, mean.
[10] abbreviates: read-out: Plasma concentrations, minimum.
[11] abbreviates: read-out: Tissue/plasma ratios, maximum.
[12] abbreviates: read-out: Tissue/plasma ratios, mean.
Where [13] appears, read: read-out: Tissue/plasma ratios, minimum.
Where [14] appears, read: read-out: Tissue concentrations, maximum.
The mark [15] stands for this setting: read-out: Tissue concentrations, mean.
Where [16] appears, read: read-out: Tissue concentrations, minimum.

On to `CO[C@@H]1[C@H](N(C)C(=O)c2ccccc2)C[C@H]2O[C@]1(C)n1c3ccccc3c3c4c(c5c6ccccc6n2c5c31)C(=O)N[C@H]4O` [CGP52421], for which, in data set [1], the IC50 was 50 nM. Besides, the results for the concentration at 28 day in data set [2] (setting [5]) and in data set [3] (setting [7]) were 18.4 µM and 1.52 µM, respectively. In data set [3] (setting [6]), the Kp at 28 day stood at 0.083.
With `CO[C@@H]1[C@H](N(C)C(=O)c2ccccc2)C[C@H]2O[C@]1(C)n1c3ccccc3c3c4c(c5c6ccccc6n2c5c31)C(=O)NC4O` (single isomer, unassigned) [CGP52421 (e2)], the concentration at 28 day in data set [2] (setting [8]) was determined as 22.4 µM; in data set [2] (setting [9]), 17.3 µM; in data set [2] (setting [5]), 18.4 µM; in data set [2] (setting [10]) it was 10.8 µM; in data set [3] (setting [14]) it was 3.21 µM; in data set [3] (setting [15]), 1.51 µM. Besides, the concentration at 28 day in data set [3] (setting [7]) came to 1.52 µM; in data set [3] (setting [16]), 0.635 µM. The Plasma concentrations in data set [2] is 19.151 µM and 16.633 µM and 11.311 µM and 18.383 µM and 19.519 µM and 18.475 µM and 22.448 µM and 13.352 µM and 10.767 µM and 15.869 µM and 20.34 µM and 20.944 µM. Further, the “Estimated median elimination t1/2” value in data set [4] was 36 days. Moreover, the Kp at 28 day was 0.153 in data set [3] (setting [11]), 0.085 in data set [3] (setting [12]), 0.083 in data set [3] (setting [6]) and 0.033 in data set [3] (setting [13]). Moreover, the Tissue/plasma ratios in data set [3] was 0.03 and 0.09 and 0.07 and 0.06 and 0.12 and 0.08 and 0.11 and 0.05 and 0.15. For the same compound, the Tissue concentrations in data set [3] is 635 nM and 1528 nM and 789 nM and 1031 nM and 2367 nM and 1569 nM and 1503 nM and 776 nM and 1644 nM and 3212 nM.
Consider `CN(C(=O)c1ccccc1)[C@@H]1C[C@H]2O[C@@](C)([C@@H]1O)n1c3ccccc3c3c4c(c5c6ccccc6n2c5c31)C(=O)NC4` [CGP 62221], for which the IC50 in data set [1] was 120 nM. Moreover, the concentration at 28 day in data set [2] (setting [8]) was determined as 10.1 µM; in data set [2] (setting [9]), 5.36 µM; in data set [2] (setting [5]), 5.43 µM; in data set [2] (setting [10]), 2.47 µM; in data set [3] (setting [14]) it was 2.35 µM; in data set [3] (setting [15]), 0.99 µM. Besides, the concentration at 28 day in data set [3] (setting [7]) stood at 0.71 µM; in data set [3] (setting [16]), 0.175 µM. Also, in data set [2], the Plasma concentrations was 4.66 µM and 3.227 µM and 2.474 µM and 7.205 µM and 5.723 µM and 6.061 µM and 10.132 µM and 2.995 µM and 5.761 µM and 5.28 µM and 5.265 µM and 5.586 µM. Besides, the Kp at 28 day in data set [3] (setting [11]) is 0.42; in data set [3] (setting [12]), 0.21; in data set [3] (setting [6]), 0.2; in data set [3] (setting [13]), 0.04. Moreover, in data set [3], the Tissue/plasma ratios is 0.04 and 0.19 and 0.21 and 0.11 and 0.35 and 0.34 and 0.12 and 0.22 and 0.42. Also, the Tissue concentrations in data set [3] was 175 nM and 609 nM and 523 nM and 759 nM and 2006 nM and 661 nM and 1022 nM and 651 nM and 1143 nM and 2353 nM.
